According to ChEMBL document CHEMBL2417456, “Hit identification and optimization in virtual screening: practical recommendations based on a critical literature analysis” (J Med Chem, 2013):

Columns and labels:
[1] = Inhibition of HIV1 His6-tagged integrase-FLAG-tagged LEDGF/p75 (unknown origin) interaction after 1 hr by AlphaScreen assay
[2] = test system: Human immunodeficiency virus 1; test: Antiviral activity against HIV1 infected in human MT2 cells assessed as protection from viral replication; type: functional, organism-based; settings: Human immunodeficiency virus 1, MT2

Row | EC50 [2] [µM] | SMILES | IC50 [1] [µM]
1 | – | O=C(O)/C(O)=C/C(=O)c1cn(Cc2ccc(F)cc2)c2ccccc12 | 100
2 | – | O=C(O)/C(O)=C/C(=O)c1c[nH]c2cccc(O)c12 | 35
3 | > 100 | COc1ccc(Cc2nnc(Nc3ccc(C)cc3)o2)cc1OC | –
